Measured values: ChEMBL document CHEMBL5154697, “Synthesis and anti-HIV activity of a new isoxazole containing disubstituted 1,2,4-oxadiazoles analogs” (Bioorg Med Chem, 2022)

How the values were obtained:
[1] = tested on: Human immunodeficiency virus 1; assay: Antiviral activity against HIV1 NL4.3 infected in human TZM-bl cells assessed as inhibition of viral infection at 100 nM measured after 48 hrs by steady-glo luciferase reporter gene assay relative to control; type: functional; settings: Human immunodeficiency virus 1, NL4.3, TZM-bl
[2] = Cytotoxicity against human CEM-GFP cells assessed as cell viability at 100 nM measured after 48 hrs by MTT assay relative to control; type: toxicity, cell-based; settings: read-out: Activity
[3] = Cytotoxicity against human TZM-bl cells harboring beta-galactosidase/luciferase reporter gene assessed as cell viability at 100 nM measured after 48 hrs by MTT assay relative to control; type: toxicity, cell-based; settings: read-out: Activity
[4] = tested on: Human immunodeficiency virus 1; assay: Antiviral activity against HIV1 NL4.3 virus infected in human CEM-GFP cells assessed as reduction in p24 antigen level at 100 nM measured after 72 hrs by ELISA relative to control; type: functional; settings: Human immunodeficiency virus 1, NL4.3, CEM-GFP
[5] = biological target: Human immunodeficiency virus type 1 reverse transcriptase (Human immunodeficiency virus 1) (UniProt Q72547); assay: Inhibition of HIV-1 reverse transcriptase RNA-dependent DNA polymerase activity assessed as reduction in biotin-dUTP incorporation at 100 nM using poly(A)/oligo (dT)15 as template/primer by ELISA relative to control
[6] = tested on: Human immunodeficiency virus 1; assay: Antiviral activity against HIV1 NL4.3 virus infected in human CEM-GFP cells assessed as reduction in p24 antigen level measured after 72 hrs by ELISA; type: functional, organism-based; settings: Human immunodeficiency virus 1, NL4.3, CEM-GFP
[7] = Therapeutic index, ratio of CC50 for cytotoxicity against human CEM-GFP cells to IC50 for antiviral activity against HIV1 NL4.3 virus infected in human CEM-GFP cells assessed as reduction in p24 antigen level; type: toxicity, cell-based; settings: read-out: TI
[8] = Cytotoxicity against human CEM-GFP cells assessed as reduction in cell viability measured after 48 hrs by MTT assay; type: toxicity, cell-based
[9] = biological target: Human immunodeficiency virus type 1 integrase (Human immunodeficiency virus 1) (UniProt Q7ZJM1); assay: Inhibition of full-length recombinant HIV1 integrase at 100 nM using target substrate DNA preincubated for 5 mins followed by substrate addition and measured after 30 mins by colorimetry relative to control; settings: time 35.0 min
Human immunodeficiency virus type 1 integrase (Human immunodeficiency virus 1), sequence (Q7ZJM1 as listed by the source): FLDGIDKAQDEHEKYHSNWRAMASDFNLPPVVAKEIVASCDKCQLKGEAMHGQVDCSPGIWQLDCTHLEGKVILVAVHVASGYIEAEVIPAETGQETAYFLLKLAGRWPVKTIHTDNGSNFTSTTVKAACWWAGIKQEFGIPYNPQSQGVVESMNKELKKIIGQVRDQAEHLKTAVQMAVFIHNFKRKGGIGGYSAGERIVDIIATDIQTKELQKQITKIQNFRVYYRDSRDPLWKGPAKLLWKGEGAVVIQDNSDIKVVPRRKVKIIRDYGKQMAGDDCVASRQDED

[10] = biological target: Human immunodeficiency virus type 1 protease (Human immunodeficiency virus 1) (UniProt Q72874); assay: Inhibition of HIV-1 protease at 100 nM using fluorophore-labelled peptide substrate by fluorescence assay relative to control
[11] = biological target: Human immunodeficiency virus type 1 protease (Human immunodeficiency virus 1) (UniProt Q72874); settings: dose 500.0 nM

inhibition [5] [%]	IC50 [6] [nM]	inhibition [9] [%]	inhibition [10] [%]	inhibition [11] [%]	SMILES	inhibition at 0.1 µM [1] [%]	viability at 48 h, 0.1 µM [2] [%]	viability at 48 h, 0.1 µM [3] [%]	inhibition at 0.1 µM [4] [%]	selectivity ratio [7]	CC50 at 48 h [8] [µM]
–	–	–	–	–	COc1ccc(-c2cc(Cc3noc(-c4cccc(C(F)(F)F)c4)n3)on2)cc1	24.3	96.6	83	27	–	–
5.44	85.7	9.58	6.66	–	FC(F)(F)c1cccc(-c2nc(Cc3cc(-c4ccc(Cl)cc4)no3)no2)c1	82	85.1	84.4	66.8	155	13.3
–	–	–	–	–	FC(F)(F)c1cccc(-c2nc(Cc3cc(-c4ccccc4)no3)no2)c1	47.4	95.9	84.7	39.1	–	–
–	–	–	–	–	FC(F)(F)c1cccc(-c2nc(Cc3cc(-c4cccs4)no3)no2)c1	27.5	88.3	88.2	17.5	–	–
–	–	–	–	–	Cc1ccc(-c2cc(Cc3noc(-c4cccc(C(F)(F)F)c4)n3)on2)cc1	65.4	86.7	82.1	50	–	–
–	–	–	–	–	CCNC(=O)c1noc(-c2cc(C(C)C)c(O)cc2O)c1-c1ccc(CN2CCOCC2)cc1 [LUMINESPIB]	88.9	94.1	92.7	82.5	470	31.1
–	–	–	–	87	CC(C)(C)NC(=O)[C@@H]1CN(Cc2cccnc2)CCN1C[C@@H](O)C[C@@H](Cc1ccccc1)C(=O)N[C@H]1c2ccccc2C[C@H]1O	–	–	–	–	–	–
